Laboratory results published in patent US20220378756A1, “ACTIVATING PYRUVATE KINASE R” (FORMA Therapeutics, Inc., priority 2019, published 2022).
Values joined by “and” are separate entries in the source; they are usually repeats but may differ in a detail not shown here. Equal entries are not always repeated. “Also recorded” adds a separate entry of the source.

Key:
[1] = molecular target: T1, wt-PKR in mature human erythrocytes (Homo sapiens, UniProt P30613); assay: Cell assay: PKR activation in purified human RBCs (Biovision Pyruvate Kinase Assay); type: cell-based; conditions: 3 hr treatment
T1 construct: host or cells: purified human RBCs from donors
T1 sequence (P30613 whole entry): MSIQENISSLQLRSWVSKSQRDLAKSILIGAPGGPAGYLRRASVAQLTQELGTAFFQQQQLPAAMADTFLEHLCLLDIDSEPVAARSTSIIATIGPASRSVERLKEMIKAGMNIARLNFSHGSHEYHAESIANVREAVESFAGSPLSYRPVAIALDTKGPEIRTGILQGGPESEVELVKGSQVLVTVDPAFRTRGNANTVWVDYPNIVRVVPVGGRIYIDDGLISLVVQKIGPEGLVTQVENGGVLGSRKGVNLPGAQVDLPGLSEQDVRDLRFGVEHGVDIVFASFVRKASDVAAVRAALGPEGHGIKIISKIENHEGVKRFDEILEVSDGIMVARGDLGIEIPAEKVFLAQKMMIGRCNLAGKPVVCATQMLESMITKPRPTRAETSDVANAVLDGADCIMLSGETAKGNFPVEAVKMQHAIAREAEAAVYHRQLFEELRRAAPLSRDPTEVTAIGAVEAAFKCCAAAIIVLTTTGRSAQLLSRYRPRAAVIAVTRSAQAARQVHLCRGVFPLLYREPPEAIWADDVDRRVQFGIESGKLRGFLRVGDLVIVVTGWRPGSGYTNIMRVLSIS
Procedure: The activation of wt-PKR by Compound 1 in mature human erythrocytes ex vivo was evaluated in purified RBCs purchased from Research Blood Components. Cells treated with Compound 1 for 3 hr in glucose-containing media were washed, lysed, and assayed using a Biovision Pyruvate Kinase Assay (K709-100). The assay was repeated multiple times to account for donor-to-donor variability and the relatively narrow dynamic range.

[2] = test system: 2,3-DPG and ATP levels in whole blood; assay: PK/PD studies in wild type mice, QDx7 oral gavage; type: in vivo, Balb/c mice
Procedure: Two pharmacokinetic (PK)/pharmacodynamic (PD) studies were conducted in Balb/c mice that were administered Compound 1 once daily by oral gavage (formulated in 10% Cremophor EL/10% PG/80% DI water) for 7 days (QD×7) at doses of 0 (vehicle), 3.75, 7.5, 15, 30, 60 mg/kg (Study 1); 0 (vehicle), 7.5, 15, 30, 60, 120, or 240 mg/kg (Study 2). On the 7th day, whole blood was collected 24 hours after dosing and snap frozen. Samples were later thawed and analyzed by LC/MS for 2,3-DPG and ATP levels.

[3] = test system: Berkeley SS mouse (human HgbS); assay: Berkeley SS mouse model of SCD, 7 days in chow; type: in vivo; conditions: 1000 ppm in chow
From the text: Targeted gene deletions and a human transgene in the Berkeley SS mouse model result in mice that express human HgbS almost exclusively (Pászty C. Transgenic and gene knock-out mouse models of sickle cell anemia and the thalassemias. Curr Opin Hematol. 1997 March; 4(2):88-93) and mimic the genetic, hematologic, and histopathologic features of SCD in humans. These include irreversibly sickled RBCs, anemia, and multi-organ pathology.
The effects of Compound 1 on Hgb affinity for oxygen, percentage of sickled cells, and/or Hgb were evaluated in the Berkley SS mouse. Two studies were conducted where mice received 0 or 1000 ppm Compound 1 ad libitum in mouse chow for 7 days. Blood was drawn on Day 7 and analyzed under hypoxic conditions. Red cell parameters were measured by ADVIA.

[4] = Phase 1, SCD patients single 700 mg dose: safety; type: in vivo, human
Procedure: In this study, SAD/MAD cohorts are randomized (3 to 1) to receive Compound 1 or placebo (P). Compound 1 was evaluated first in 4 healthy SAD cohorts and 4 healthy MAD (14-day dosing period) cohorts. Based on the safety, and PK/PD profile from HS, Compound 1 is then evaluated in 1 SCD SAD cohort and 2 SCD MAD cohorts. Specifically, based on the safety and pharmacokinetic/pharmacodynamics (PK/PD) profile in healthy volunteer studies, Compound 1 is evaluated in patients (pts) with SCD, first in a single dose (SD or SAD) cohort and then in multiple-dose (MD or MAD) cohorts (14-day and 12-week). Safety assessments include AEs, vital signs, ECGs and laboratory parameters. PK/PD blood sampling was performed on Day 1 (SAD/MAD) and Day 14 (MAD) and up to 72 h after the last dose and at the end-of-study visit. PD parameters included 2,3-DPG, ATP, and p50 in all cohorts with additional PD studies (including oxygen scan) performed only in the SCD cohorts. PD parameters included 2,3-DPG, ATP, p50, RBC deformability with controlled deoxygenation and reoxygenation (Lorrca® oxygen scan) and varying osmolality (Lorrca® osmoscan)). To maintain study blind, pt identifiers were removed when needed.
In the SD cohort, 7 pts (2 males, 5 females, all HbSS) received 700 mg Compound 1 (n=5) or placebo (n=2).
All SCD patients who received a single 700 mg dose of Compound 1 or placebo were monitored for adverse events for 7 days. The incidence of treatment emergent adverse events (TEAEs) in SCD patients receiving Compound 1 (700 mg) or placebo are reported in Table 23. Six TEAEs were reported in 4 patients; all TEAEs were grade 1 and transient. Specifically, six TEAEs were reported in 4 of 7 ([…]) patients, including 3 TEAEs (arthralgia, headache, palpitations) in 2 of 5 ([…]) pts receiving Compound 1 and 3 TEAEs (back pain, myalgia, pruritis) in 2 of 2 (100%) pts receiving placebo; all TEAEs were grade 1 and transient. […] One possibly related TEAE (palpitations) occurred about 8 hours post dose. No other symptoms were observed, and the palpitations resolved in <1 minute. […] The single 700 mg dose of Compound 1 was considered tolerable, and the first multiple dose SCD cohort (“Dose 1” in FIG. 28) was initiated.

[5] = test system: estradiol and testosterone levels; assay: Circulating estradiol and testosterone in healthy subjects, 14 days; type: in vivo, human; conditions: healthy subjects, 100, 200, 300 mg BID and 400 mg QD for 14 days; days 8, 14, 17
Procedure: Effects on circulating levels of estradiol and testosterone in male and female healthy subjects receiving Compound 1 or placebo for a treatment period of 14 days were evaluated. Compound 1 was administered twice daily (BID) at dose levels of 100 mg, 200 mg, and 300 mg, and once daily (QD) at a dose level of 400 mg. Each dosing cohort was comprised of 9 subjects treated with Compound 1 and 3 subjects treated with placebo. Testosterone and estradiol levels were assessed prior to dosing (baseline), and then on days 8, 14 and 17.

[6] = Preclinical safety and in vitro panels

O=C([C@H](CO)c1ccccc1)N1CC2=C(C1)CN(S(=O)(=O)c1cnc3c(c1)OCCO3)C2 (single isomer, unassigned) [Compound 1]
Max-Min (%) ([1]; individual replicates 1-4): <125% and <150% and <100% and <50% | Max-Min (%), mean maximum activation increase ([1]; mean of replicates): <100% | reduction of 2,3-DPG levels in blood ([2]; 120 and 240 mg/kg (≥120 mg/kg) QDx7 oral): > 30% | ATP increase compared to vehicle ([2]; Study 1, 30 mg/kg QDx7 oral): 21% | ATP increase compared to vehicle ([2]; Study 1, 60 mg/kg QDx7 oral): 79% | ATP increase ([2]; Study 2, 240 mg/kg QDx7 oral (highest dose)): 45% | maximum ATP increase compared to vehicle ([2]; Study 2, doses up to 120 mg/kg QDx7 oral): ~110% | tolerability ([2]; both studies, up to 240 mg/kg QDx7, no adverse clinical signs, no body weight difference): well tolerated | reduction of 2,3-DPG levels in blood ([2]; ≥15 mg/kg QDx7 oral, 24 h after dosing on day 7): > 20% | ATP increase ([2]; ≥60 mg/kg): > 40% | Hgb increase [3]: ≈ 1 g/dL | serious adverse events / TEAEs leading to withdrawal ([4]; SCD single dose cohort): No serious adverse events (SAEs) or TEAEs leading to pt withdrawal | Any TEAE, n (%) ([4]; SCD, 700 mg single dose, N = 5): 2 (40) n (%) | TEAE related to study drug, n (%) ([4]; SCD, 700 mg single dose, N = 5): 1 (20) n (%) | pts with TEAEs (2 of 5) ([4]; SCD, 700 mg single dose, 3 TEAEs (arthralgia, headache, palpitations), grade 1): 40% | change from baseline for testosterone and estradiol levels [5]: No effect on testosterone or estradiol levels; also recorded: no statistically significant changes | preclinical evidence of arrhythmia risk, mutagenicity, nonspecific binding [6]: has not demonstrated any preclinical evidence of arrhythmia risk, mutagenicity, or nonspecific binding activity
